Reference: ChEMBL document CHEMBL1145452, “In vitro structure-activity relationship and in vivo characterization of 1-(aryl)-3-(4-(amino)benzyl)urea transient receptor potential vanilloid 1 antagonists” (J Med Chem, 2007)
Converted amounts (≈) assume the structure as drawn.

Key:
[1] = target: Transient receptor potential cation channel subfamily V member 1 (Homo sapiens, UniProt Q8NER1); assay: Antagonist activity at human TRPV1 receptor by calcium influx assay; format: functional
Liver microsomes [2] = assay: Stability in rat liver microsomes at 0.5 uM after 30 mins; format: ADME, Microsome; conditions: 0.5 h
Liver microsomes [3] = assay: Stability in human liver microsomes at 0.5 uM after 30 mins; format: ADME, Microsome; conditions: 0.5 h
[4] = Volume of distribution in rat at 10 umol/kg; format: ADME, organism-based; conditions: in vivo, read-out: Vbeta
Rattus norvegicus = assay: Effect on CFA-induced thermal hyperalgesia in po dosed rat; format: functional
[5] = Plasma clearance in rat at 10 umol/kg; format: ADME, organism-based
[6] = Half life in rat at 10 umol/kg; format: ADME, organism-based; conditions: in vivo
[7] = Cmax in rat at 10 umol/kg, po; format: ADME, organism-based; parameters: dose 10 umol/kg, route oral; conditions: in vivo
[8] = Oral bioavailability in rat at 10 umol/kg, po; format: ADME, organism-based; conditions: in vivo
[9] = Oral bioavailability in dog; format: ADME, organism-based, Canis lupus familiaris; conditions: in vivo
[10] = Protein binding in rat plasma; format: ADME, cell-free; conditions: read-out: PPB (converted)
Adenosine receptor A3 = target: T1, Adenosine receptor A3 (Homo sapiens, UniProt P0DMS8); assay: Binding affinity to adenosine A3 receptor
T1 sequence (P0DMS8 whole entry): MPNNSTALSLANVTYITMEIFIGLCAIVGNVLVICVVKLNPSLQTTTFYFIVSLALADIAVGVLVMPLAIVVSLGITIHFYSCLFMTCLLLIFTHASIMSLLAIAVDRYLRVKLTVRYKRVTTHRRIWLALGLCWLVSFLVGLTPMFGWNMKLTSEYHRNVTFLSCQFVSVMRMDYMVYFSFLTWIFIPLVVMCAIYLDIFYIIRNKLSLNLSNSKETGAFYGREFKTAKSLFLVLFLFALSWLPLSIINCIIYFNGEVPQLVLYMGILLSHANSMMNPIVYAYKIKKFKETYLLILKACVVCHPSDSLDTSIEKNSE

Translocator protein = Translocator protein (Homo sapiens, UniProt P30536); assay: Binding affinity to peripheral benzodiazepine receptor
Sequence of Translocator protein (P30536 whole entry): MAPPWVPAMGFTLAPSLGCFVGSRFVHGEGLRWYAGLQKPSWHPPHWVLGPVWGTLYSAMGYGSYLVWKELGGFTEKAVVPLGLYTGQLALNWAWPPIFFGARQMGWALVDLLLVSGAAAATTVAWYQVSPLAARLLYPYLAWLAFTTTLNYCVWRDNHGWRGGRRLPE

[11] = Binding affinity to sodium channel; parameters: species or system Homo sapiens
[12] = Aqueous solubility at pH 2.0; format: physicochemical
[13] = Aqueous solubility at pH 6.8; format: physicochemical; conditions: buffer
Homo sapiens = species on record: Homo sapiens; assay: Protein binding in human plasma; conditions: read-out: PPB (converted)

Sequence of Transient receptor potential cation channel subfamily V member 1 (Q8NER1 whole entry): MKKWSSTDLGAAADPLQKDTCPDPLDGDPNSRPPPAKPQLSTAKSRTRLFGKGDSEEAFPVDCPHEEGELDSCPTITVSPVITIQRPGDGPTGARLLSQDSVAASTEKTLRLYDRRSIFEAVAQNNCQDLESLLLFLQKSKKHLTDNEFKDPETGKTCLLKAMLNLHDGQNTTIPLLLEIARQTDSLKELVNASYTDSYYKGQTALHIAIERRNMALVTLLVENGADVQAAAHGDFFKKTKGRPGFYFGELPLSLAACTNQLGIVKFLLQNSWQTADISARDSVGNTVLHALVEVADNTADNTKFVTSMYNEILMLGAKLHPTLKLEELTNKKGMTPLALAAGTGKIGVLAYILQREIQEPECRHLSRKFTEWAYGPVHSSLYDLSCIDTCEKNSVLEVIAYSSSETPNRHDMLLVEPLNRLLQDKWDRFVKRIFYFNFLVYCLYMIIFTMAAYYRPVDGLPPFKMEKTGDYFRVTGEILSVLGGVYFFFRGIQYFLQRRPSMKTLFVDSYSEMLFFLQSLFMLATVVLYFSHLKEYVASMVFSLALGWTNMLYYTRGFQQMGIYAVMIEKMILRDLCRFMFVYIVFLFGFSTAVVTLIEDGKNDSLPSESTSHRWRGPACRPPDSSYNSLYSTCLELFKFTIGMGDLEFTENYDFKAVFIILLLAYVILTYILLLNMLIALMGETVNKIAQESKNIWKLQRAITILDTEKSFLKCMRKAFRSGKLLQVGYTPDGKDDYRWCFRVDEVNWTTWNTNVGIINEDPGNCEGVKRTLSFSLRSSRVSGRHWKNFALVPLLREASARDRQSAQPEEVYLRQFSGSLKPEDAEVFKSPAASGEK

| SMILES | IC50 [1] [µM] | also measured |
| --- | --- | --- |
| O=C(NCc1ccc(C(F)(F)F)cc1)Nc1cccc2cnccc12 | 0.0021 | Stability (Liver microsomes [2]): 383 pmol/min/mg; Stability (Liver microsomes [3]): 135 pmol/min/mg |
| Cc1cc2c(NC(=O)NCc3ccc(N4Cc5ccccc5C4)c(F)c3)cccc2cn1 | 7.36 | – |
| O=C(NCc1ccc(N2CCCCCC2)cc1Cl)Nc1cccc2[nH]ncc12 | 0.19 | – |
| O=C(NCc1ccc(N2CCCCCC2)cc1C(F)(F)F)Nc1cccc2[nH]ncc12 | 0.133 | – |
| O=C(NCc1ccc(N2CCOCC2)cc1)Nc1cccc2cnc(Cl)cc12 | 0.156 | – |
| O=C(NCc1ccc(N2CCCCC2)cc1)Nc1cccc2cnccc12 | 0.0073 | – |
| O=C(NCc1ccc(N2CCCCCCC2)cc1)Nc1cccc2cnccc12 | 0.0047 | – |
| O=C(NCc1cc(F)c(N2[C@@H]3CC[C@H]2CC2(C3)OCCO2)cc1F)Nc1cccc2[nH]ncc12 | 0.082 | – |
| O=C1C[C@H]2CC[C@@H](C1)N2c1cc(F)c(CNC(=O)Nc2cccc3[nH]ncc23)cc1F | 0.157 | – |
| CC1CCN(c2ccc(CNC(=O)Nc3cccc4cnccc34)cc2)CC1 | 0.0093 | – |
| O=C(NCc1ccc(N2CCOCC2)cc1)Nc1cccc2cnccc12 | 0.091 | – |
| O=C(NCc1ccc(N2[C@@H]3CCC[C@H]2CC3)cc1)Nc1cccc2cnccc12 | 0.0033 | Stability (Liver microsomes [2]): 247 pmol/min/mg; Stability (Liver microsomes [3]): 818 pmol/min/mg |
| O=C(NCc1ccc(N2[C@@H]3CCC[C@H]2CC3)c(C(F)(F)F)c1)Nc1cccc2[nH]ncc12 | 0.0269 | Stability (Liver microsomes [2]): 315 pmol/min/mg; Stability (Liver microsomes [3]): 445 pmol/min/mg; Vd [4]: 2.1 L/kg; ED50 (Rattus norvegicus): 20 µmol/kg; clearance [5]: 16.7 mL/min/kg; half-life [6]: 1.4 h; Cmax [7]: 240 ng/mL; bioavailability [8]: 21%; bioavailability [9]: 46%; fraction unbound [10]: 0.014; IC50 (Adenosine receptor A3): > 5 µM; IC50 (Translocator protein): > 5 µM; IC50 [11]: > 5 µM; solubility [12]: 14 µg/mL (≈ 31.6 µM); solubility [13]: < 0.001 µg/mL; fraction unbound (Homo sapiens): 0.03 |
| O=C(NCc1ccc(N2[C@@H]3CCC[C@H]2CC3)c(Br)c1)Nc1cccc2[nH]ncc12 | 0.0432 | – |
| O=C(NCc1ccc(N2[C@@H]3CCC[C@H]2CC3)c(F)c1)Nc1cccc2[nH]ncc12 | 0.0148 | Stability (Liver microsomes [2]): 394 pmol/min/mg; Stability (Liver microsomes [3]): 516 pmol/min/mg |
| O=C(NCc1ccc(N2CCCCCC2)c(F)c1)Nc1cccc2[nH]ncc12 | 0.0142 | – |
| Cc1cc(CNC(=O)Nc2cccc3[nH]ncc23)ccc1N1[C@@H]2CCC[C@H]1CC2 | 0.0198 | – |
| Cn1ncc2c(NC(=O)NCc3ccc(N4[C@@H]5CCC[C@H]4CC5)cc3Cc3ccccc3)cccc21 | 0.019 | – |
| CC(C)c1cc(N2[C@@H]3CCC[C@H]2CC3)ccc1CNC(=O)Nc1cccc2[nH]ncc12 | 0.0353 | – |
| O=C(NCc1ccc(N2CCCCCC2)cc1C(F)(F)F)Nc1cccc2cnccc12 | 0.0057 | – |

| SMILES | IC50 [1] [µM] | also measured |
| --- | --- | --- |
| O=C(NCc1ccc(N2CCCCCC2)c(F)c1)Nc1cccc2cnccc12 | 0.0028 | Stability (Liver microsomes [2]): 366 pmol/min/mg; Stability (Liver microsomes [3]): 1223 pmol/min/mg; Vd [4]: 1.8 L/kg; ED50 (Rattus norvegicus): 30 µmol/kg; clearance [5]: 30 mL/min/kg; half-life [6]: 0.69 h; Cmax [7]: 150 ng/mL; bioavailability [8]: 10%; bioavailability [9]: 18% |
| O=C(NCc1ccc(N2[C@@H]3CCC[C@H]2CC3)cc1)Nc1cccc2[nH]ncc12 | 0.018 | – |
| O=C(NCc1ccc(N2[C@@H]3CCC[C@H]2CC3)cc1C(F)(F)F)Nc1cccc2[nH]ncc12 | 0.0545 | – |
| CC(C)(C)CCc1cc(N2[C@@H]3CCC[C@H]2CC3)ccc1CNC(=O)Nc1cccc2[nH]ncc12 | 0.0103 | – |
| O=C(NCc1cc(F)c(N2CCOCC2)c(F)c1)Nc1cccc2cnccc12 | 0.0093 | – |
| CC1CN(c2ccc(CNC(=O)Nc3cccc4cnccc34)cc2)CC(C)O1 (stereo not drawn) | 0.258 | – |
| Nc1cc2c(NC(=O)NCc3ccc(N4CCCCCC4)cc3)cccc2cn1 | 0.0098 | – |
| CN(C)c1ccc(CNC(=O)Nc2cccc3cnccc23)cc1 | 0.157 | – |
| O=C(NCc1ccc(N2CCCCCC2)cc1)Nc1cccc2cnccc12 | 0.0033 | – |
| CCN1CCc2cc(CNC(=O)Nc3cccc4[nH]ncc34)ccc21 | 0.285 | – |
| Cn1c2ccccc2c2cc(CNC(=O)Nc3cccc4[nH]ncc34)ccc21 | 0.902 | – |
| O=C(NCc1cc(F)c(N2[C@@H]3CCC[C@H]2CC3)c(F)c1)Nc1cccc2[nH]ncc12 | 0.0126 | – |
| O=C(NCc1cc(F)c(N2CCCCCC2)c(F)c1)Nc1cccc2[nH]ncc12 | 0.0393 | – |
| O=C(NCc1ccc(N2[C@@H]3CCC[C@H]2CC3)cc1Cl)Nc1cccc2[nH]ncc12 | 0.0588 | – |
| O=C(NCc1ccc(N2[C@@H]3CCC[C@H]2CC3)c(Cl)c1)Nc1cccc2[nH]ncc12 | 0.0204 | – |
| O=C(NCc1ccc(N2CCCCCC2)c(C(F)(F)F)c1)Nc1cccc2cnccc12 | 0.0046 | Stability (Liver microsomes [2]): 689 pmol/min/mg; Stability (Liver microsomes [3]): 643 pmol/min/mg |
| O=C(NCc1ccc(N2CCCCCC2)cc1Cl)Nc1cccc2cnccc12 | 0.0052 | – |
| Cc1cc2c(NC(=O)NCc3ccc(N4CCCCCC4)cc3)cccc2cn1 | 0.0038 | – |
| O=C(NCc1ccc(N2[C@@H]3CCC[C@H]2CC3)c(F)c1F)Nc1cccc2[nH]ncc12 | 0.0255 | – |
| Cc1cc(N2[C@@H]3CCC[C@H]2CC3)ccc1CNC(=O)Nc1cccc2[nH]ncc12 | 0.029 | – |
